According to the supplement of paper PMC10307832:

What was measured:
Assay in all cases: relative viability (nuclei count vs DMSO), 5 days (fraction); higher = more cells survive
Carfilzomib + Bortezomib = compound: CC(C)C[C@H](NC(=O)[C@H](CCc1ccccc1)NC(=O)CN1CCOCC1)C(=O)N[C@@H](Cc1ccccc1)C(=O)N[C@@H](CC(C)C)C(=O)[C@@]1(C)CO1 [Carfilzomib] + CC(C)C[C@H](NC(=O)[C@H](Cc1ccccc1)NC(=O)c1cnccn1)B(O)O [Bortezomib] (partner 0.002 µM)
Method in brief: (§1)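 Nuclei were stained with Hoechst during a one-step fixation (final 0.05% Triton X-100, 1% formaldehyde, 1 ug/ml Hoechst) carried out 5 days after dosing, then counted on 4× images. The cells, lung cancer lines in 1536-well plates, had been dosed by pin tool the day after seeding with one drug alone or a fixed anchor-drug dose plus five library-drug doses (not always all listed) in √10 steps. Relative viability is the nuclei count in treated wells divided by that in vehicle wells, and each value is the median of duplicate plates.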

Carfilzomib + Tozasertib = compound: CC(C)C[C@H](NC(=O)[C@H](CCc1ccccc1)NC(=O)CN1CCOCC1)C(=O)N[C@@H](Cc1ccccc1)C(=O)N[C@@H](CC(C)C)C(=O)[C@@]1(C)CO1 [Carfilzomib] + Cc1cc(Nc2cc(N3CCN(C)CC3)nc(Sc3ccc(NC(=O)C4CC4)cc3)n2)n[nH]1 [Tozasertib] (partner 0.1 µM)
Method in brief: as §1

Crizotinib + Tozasertib = compound: C[C@@H](Oc1cc(-c2cnn(C3CCNCC3)c2)cnc1N)c1c(Cl)ccc(F)c1Cl [Crizotinib] + Cc1cc(Nc2cc(N3CCN(C)CC3)nc(Sc3ccc(NC(=O)C4CC4)cc3)n2)n[nH]1 [Tozasertib] (partner 0.1 µM)
Method in brief: as §1

Olaparib + Bortezomib = compound: O=C(c1cc(Cc2n[nH]c(=O)c3ccccc23)ccc1F)N1CCN(C(=O)C2CC2)CC1 [Olaparib] + CC(C)C[C@H](NC(=O)[C@H](Cc1ccccc1)NC(=O)c1cnccn1)B(O)O [Bortezomib] (partner 0.002 µM)
Method in brief: as §1

| Cell Line | relative viability (Carfilzomib + Bortezomib; first compound 0.001 µM) | relative viability (Carfilzomib + Bortezomib; first compound 0.003162 µM) | relative viability (Carfilzomib + Bortezomib; first compound 0.01 µM) | relative viability (Carfilzomib + Bortezomib; first compound 0.03162 µM) | relative viability (Carfilzomib + Bortezomib; first compound 0.1 µM) | relative viability (Carfilzomib + Tozasertib; first compound 0.001 µM) | relative viability (Carfilzomib + Tozasertib; first compound 0.003162 µM) | relative viability (Carfilzomib + Tozasertib; first compound 0.01 µM) | relative viability (Carfilzomib + Tozasertib; first compound 0.03162 µM) | relative viability (Carfilzomib + Tozasertib; first compound 0.1 µM) | relative viability (Crizotinib + Tozasertib; first compound 0.01 µM) | relative viability (Crizotinib + Tozasertib; first compound 0.03162 µM) | relative viability (Crizotinib + Tozasertib; first compound 0.1 µM) | relative viability (Crizotinib + Tozasertib; first compound 0.3162 µM) | relative viability (Crizotinib + Tozasertib; first compound 1 µM) | relative viability (Olaparib + Bortezomib; first compound 0.08 µM) | relative viability (Olaparib + Bortezomib; first compound 0.253 µM) | relative viability (Olaparib + Bortezomib; first compound 2.53 µM) | relative viability (Olaparib + Bortezomib; first compound 8 µM) |
| --- | --- | --- | --- | --- | --- | --- | --- | --- | --- | --- | --- | --- | --- | --- | --- | --- | --- | --- | --- |
| RERF-LC-KJ | 0.994 | 1.05 | 0.926 | 0.47 | 0.258 | 0.501 | 0.478 | 0.542 | 0.377 | 0.163 | 0.455 | 0.516 | 0.49 | 0.477 | 0.527 | 1.19 | 1.14 | 1.03 | 1.06 |
| SK-LU-1 | 0.878 | 1.19 | 0.797 | 0.195 | 0.237 | 0.342 | 0.371 | 0.343 | 0.0891 | 0.109 | 0.287 | 0.373 | 0.328 | 0.334 | 0.27 | 1.33 | 1.08 | 1.23 | 1.19 |
| SW 1573 | 0.986 | 0.959 | 0.546 | 0.114 | 0.0592 | 0.193 | 0.253 | 0.23 | 0.0683 | 0.051 | 0.178 | 0.216 | 0.188 | 0.198 | 0.162 | 1.03 | 0.987 | 0.769 | 0.619 |
| UMC-11 | 0.66 | 0.887 | 0.701 | 0.533 | 0.179 | 0.206 | 0.202 | 0.205 | 0.202 | 0.224 | 0.185 | 0.184 | 0.192 |  | 0.208 | 0.98 | 0.648 | 0.538 | 0.325 |
